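48-hour exposure; five concentrations; linearly interpolated endpoints. Abbreviation: GI50, concentration required for 50% inhibition of growth.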 Calls of active or inactive are those of the source. Cut-off read from the data, not from the text of the source: active = GI50 up to about 1.1 µM and inactive = higher.
How the values were obtained:
Assay in all cases: NCI anticancer screen, dose series, 48 h
MOLT-4 = system: MOLT-4
K562 = system: K562
SW-620 = system: SW-620
U-251 = system: U-251
HCT-116 = system: HCT-116
OVCAR-4 = system: OVCAR-4
SR = system: SR
EKVX = system: EKVX
SK-MEL-5 = system: SK-MEL-5
SF-268 = system: SF-268
PC-3 = system: PC-3
MCF7 = system: MCF7
M14 = system: M14
CAKI-1 = system: CAKI-1
MDA-MB-231 = system: MDA-MB-231
SNB-75 = system: SNB-75
DU-145 = system: DU-145
786-0 = system: 786-0
OVCAR-8 = system: OVCAR-8
SF-539 = system: SF-539

Row | Compound | GI50 (MOLT-4) | GI50 (K562) | GI50 (SW-620) | GI50 (U-251) | GI50 (HCT-116) | GI50 (OVCAR-4) | GI50 (SR) | GI50 (EKVX) | GI50 (SK-MEL-5) | GI50 (SF-268) | GI50 (PC-3) | GI50 (MCF7) | GI50 (M14) | GI50 (CAKI-1) | GI50 (MDA-MB-231) | GI50 (SNB-75) | GI50 (DU-145) | GI50 (786-0) | GI50 (OVCAR-8) | GI50 (SF-539)
1 | CN(C)c1ccc(/C=N\NC(=O)CSCC(=O)N/N=C/c2ccc(N(C)C)cc2)cc1 | 36.6 µM (inactive) | 52.6 µM (inactive) | > 100 µM (inactive) | 25.9 µM (inactive) | 46.9 µM (inactive) | 43.9 µM (inactive) | 73.8 µM (inactive) | 44.5 µM (inactive) | 30 µM (inactive) | > 100 µM (inactive) | 45.2 µM (inactive) | 40.5 µM (inactive) | 33.9 µM (inactive) | 64.1 µM (inactive) | 13.7 µM (inactive) | 56 µM (inactive) | 51.5 µM (inactive) | 55.1 µM (inactive) | 53.7 µM (inactive) | 37.3 µM (inactive)
2 | Cc1nc2c(nc1C)C(=O)c1ccccc1C2=O | 11.8 µM (inactive) | 7.67 µM (inactive) | 2.98 µM (inactive) | 6.55 µM (inactive) | 4.65 µM (inactive) | 5.36 µM (inactive) | 8.43 µM (inactive) | 15.4 µM (inactive) | 0.188 µM (active) | 10.2 µM (inactive) | 3.24 µM (inactive) | 1.36 µM (inactive) | 0.871 µM (active) | 24.4 µM (inactive) | 7.55 µM (inactive) | 2.64 µM (inactive) | 1.36 µM (inactive) | 8.38 µM (inactive) | 7.53 µM (inactive) | 4.6 µM (inactive)
3 | NCCN1CC2CCC(CC2)C1 | > 10 µM (inactive) | > 10 µM (inactive) | > 10 µM (inactive) | > 10 µM (inactive) | > 10 µM (inactive) | > 10 µM (inactive) | > 10 µM (inactive) | > 10 µM (inactive) | > 10 µM (inactive) | > 10 µM (inactive) | > 10 µM (inactive) | > 10 µM (inactive) | > 10 µM (inactive) | > 10 µM (inactive) | > 10 µM (inactive) | > 10 µM (inactive) | > 10 µM (inactive) | > 10 µM (inactive) | > 10 µM (inactive) | > 10 µM (inactive)
4 | O=C(C[n+]1ccccc1)N/N=C(\Cc1nc2ccc([N+](=O)[O-])cc2nc1O)C(=O)Nc1cc(Cl)c(Cl)cc1Cl | > 100 µM (inactive) | > 100 µM (inactive) | > 100 µM (inactive) | > 100 µM (inactive) | > 100 µM (inactive) | 79.4 µM (inactive) | > 100 µM (inactive) | > 100 µM (inactive) | 95.1 µM (inactive) | > 100 µM (inactive) | > 100 µM (inactive) | 67.3 µM (inactive) | > 100 µM (inactive) | 65.6 µM (inactive) | 41.9 µM (inactive) | 19.4 µM (inactive) | > 100 µM (inactive) | > 100 µM (inactive) | > 100 µM (inactive) | > 100 µM (inactive)
5 | CN(C)CCC(=O)N1C/C(=C\c2ccc(Cl)c(Cl)c2)C(=O)/C(=C/c2ccc(Cl)c(Cl)c2)C1 | 0.19 µM (active) | 0.038 µM (active) | 0.102 µM (active) | 0.149 µM (active) | 0.119 µM (active) | 0.245 µM (active) | 0.0746 µM (active) | 0.565 µM (active) | 0.453 µM (active) | 0.309 µM (active) | 0.102 µM (active) | 0.14 µM (active) | 0.291 µM (active) | 0.394 µM (active) | 0.127 µM (active) | 0.415 µM (active) | 0.224 µM (active) | 0.125 µM (active) | 0.265 µM (active) | 0.274 µM (active)
6 | N/C(=N\n1c(=S)[nH]c2ccccc2c1=O)Nn1c(=S)[nH]c2ccccc2c1=O | 11.4 µM (inactive) | 26.6 µM (inactive) | 18.9 µM (inactive) | 27.9 µM (inactive) | 16.8 µM (inactive) | 49.9 µM (inactive) | 20.3 µM (inactive) | 67.6 µM (inactive) | 44.4 µM (inactive) | 21.1 µM (inactive) | 51.8 µM (inactive) | 33.7 µM (inactive) | 11.4 µM (inactive) | 13.2 µM (inactive) | 53.3 µM (inactive) | 25.1 µM (inactive) | > 100 µM (inactive) | 15.3 µM (inactive) | 28.8 µM (inactive) | 18.9 µM (inactive)
7 | O=c1[nH][nH]c(=O)n1CCCCCCn1c(=O)[nH][nH]c1=O | > 100 µM (inactive) | > 100 µM (inactive) | > 100 µM (inactive) | > 100 µM (inactive) | > 100 µM (inactive) | > 100 µM (inactive) | > 100 µM (inactive) | > 100 µM (inactive) | > 100 µM (inactive) | > 100 µM (inactive) | > 100 µM (inactive) | > 100 µM (inactive) | > 100 µM (inactive) | > 100 µM (inactive) | > 100 µM (inactive) | > 100 µM (inactive) | > 100 µM (inactive) | > 100 µM (inactive) | > 100 µM (inactive) | > 100 µM (inactive)

From ChEMBL document CHEMBL1201862, “PubChem BioAssay data set” (2004)
